The source of these data is the supplement of paper PMC10949913.

Structures are written as SMILES.

Test in all cases: area under concentration-response curve (viability) (AUC (a.u.)); higher = less active
What all share (settings): 48 h

One assay concerns NCI-H295R. In outline: (§1)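 Three adrenocortical carcinoma cell lines were exposed for 48 h to library compounds at 11 concentrations in 1,536-well plates, then read by CellTiter-Glo luminescence. Signals were scaled per plate against vehicle and empty-well controls. From fitted concentration-response curves of inhibitory or non-responding classes alone, AC50 and area under the curve were obtained.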

The test system of another assay is CU-ACC1. In outline: as §1
Another assay relates to CU-ACC2. Put shortly: as §1

In the case of `CC1C\2C(O)C3C(N(C)C)C(=O)\C(=C(O)/C3(O)C(=O)C2=C(O)/C4=C1C=CC=C4O)C(N)=O` (centres undefined), the “area under concentration-response curve” value with NCI-H295R came to 502; in the assay on CU-ACC1 it was 473; in the assay with CU-ACC2 it was 573.

In the case of `Cn1nccc1Nc1nccc(-c2cc3c(s2)C(C)(C)N(CCN2CCOCC2)C3=O)n1`, the “area under concentration-response curve” value with NCI-H295R turned out to be 544; in the assay on CU-ACC1, 528; in the assay on CU-ACC2 it was 589.

For the molecule `Cc1n[nH]c2ncc(C(=O)N3CCC[C@H]3c3ccc(Cl)cc3)cc12`, the figures for the “area under concentration-response curve” value in the assay with NCI-H295R, in the assay with CU-ACC1 and in the assay with CU-ACC2 were 503, 414 and 540, respectively.

For `Cc1c(OCC(F)(F)F)ccnc1C[S+]([O-])c1nc2ccccc2[nH]1` (centres undefined), the “area under concentration-response curve” value was found to be 571 with NCI-H295R, 526 in the assay with CU-ACC1 and 624 in the assay with CU-ACC2.

With `CC1=C(C)C\2=C(S1)[N]3C(=NN=C3[C@H](CC(N)=O)\N=C2C4=CC=C(Cl)C=C4)C`, the “area under concentration-response curve” value in the assay on NCI-H295R was found to be 452; with CU-ACC1, 516; in the assay on CU-ACC2 it was 538.

Take `CC(C)(C)Sc1c(CC(C)(C)C(=O)O)n(Cc2ccc(Cl)cc2)c2ccc(OCc3ccc4ccccc4n3)cc12`: the “area under concentration-response curve” value came out at 554 in the assay on NCI-H295R, 578 in the assay with CU-ACC1 and 624 in the assay on CU-ACC2.

On to `O=C1NC(=O)/C(=C\c2ccc(-c3ccc(F)cc3)o2)S1`, for which the “area under concentration-response curve” value was 522 with NCI-H295R, 471 with CU-ACC1 and 572 with CU-ACC2.

Turning to `c1ccc2c(CN3CCNCC3)cccc2c1`, the figures for the “area under concentration-response curve” value with NCI-H295R, in the assay with CU-ACC1 and with CU-ACC2 were 580, 525 and 647, respectively.

Consider `CCNC(=O)[C@H]1O[C@@H](n2cnc3c(N)nc(NCCc4ccc(CCC(=O)O)cc4)nc32)[C@H](O)[C@@H]1O`, for which the “area under concentration-response curve” value came to 537 in the assay on NCI-H295R, 404 in the assay on CU-ACC1 and 587 in the assay with CU-ACC2.

As for `Nc1ncnc2c1C(=O)N(c1ccc([C@H]3CC[C@H](CC(=O)O)CC3)cc1)CCO2`, the “area under concentration-response curve” value stood at 509 in the assay on NCI-H295R, 497 in the assay with CU-ACC1 and 554 in the assay on CU-ACC2.

As to `CCn1c(-c2nonc2N)nc2cnc(Oc3cccc(NC(=O)c4ccc(OCCN5CCOCC5)cc4)c3)cc21`, the “area under concentration-response curve” value in the assay on NCI-H295R stood at 511; in the assay on CU-ACC1, 494; in the assay with CU-ACC2 it was 547.

Consider `CC\1=C(C(\N=C(/N1)C2=CC(=NC=C2)Cl)C3=C(F)C=C(Cl)C=C3)/C(=O)NC4=C(F)C=C5[NH]N=CC5=C4` (centres undefined), for which the entries for the “area under concentration-response curve” value in the assay on NCI-H295R, with CU-ACC1 and with CU-ACC2 were 488, 492 and 466, respectively.

Turning to `Clc1ccccc1C(c1ccccc1)(c1ccccc1)n1cccn1`, the “area under concentration-response curve” value in the assay with NCI-H295R turned out to be 520; in the assay on CU-ACC1, 496; with CU-ACC2, 489.

Turning to `Nc1nc(-c2nn(Cc3ccccc3F)c3ncccc23)ncc1C1CC1`, the “area under concentration-response curve” value with NCI-H295R was 544; in the assay with CU-ACC1, 538; with CU-ACC2, 533.

With `CN1CCN(CCCNc2ncc(Cl)c(-c3cc4c(C(=O)NC5CC5)cccc4s3)n2)CC1`, the figures for the “area under concentration-response curve” value in the assay on NCI-H295R, in the assay with CU-ACC1 and with CU-ACC2 were 492, 468 and 557, respectively.

Consider `NC[C@H]1CC[C@H](C(=O)O)CC1`, for which the figures for the “area under concentration-response curve” value with NCI-H295R, in the assay on CU-ACC1 and in the assay on CU-ACC2 were 452, 497 and 586, respectively.

Regarding `O=C1N(c2ccccc2)c2ccccc2C1(Cc1ccncc1)Cc1ccncc1`, the “area under concentration-response curve” value stood at 504 with NCI-H295R, 448 with CU-ACC1 and 543 with CU-ACC2.

On to `C[C@@H]1C\C2=C(CCC(=O)C2)/[C@H]3CC[C@@]4(C)[C@@H](CC[C@@]4(O)C#C)[C@H]13`, for which the “area under concentration-response curve” value in the assay with NCI-H295R is 547; in the assay on CU-ACC1, 560; with CU-ACC2 it was 592.

Regarding `Cc1ccc(O)c(C(CCN(C(C)C)C(C)C)c2ccccc2)c1.Cl` (centres undefined), the “area under concentration-response curve” value with NCI-H295R was 558; with CU-ACC1, 491; in the assay with CU-ACC2, 625.

With `Cc1cc(-c2cnn3c(NC[C@H]4C[C@@](C)(O)C4)cc(Oc4cccnc4)nc23)ccc1C(=O)NC1CC1`, the “area under concentration-response curve” value in the assay with NCI-H295R came out at 659; with CU-ACC1 it was 626; in the assay on CU-ACC2, 775.

For `N[C@@H]1CN(CC12CC2)C3=C(F)C=C4C(=O)\C(=C/N([C@@H]5C[C@@H]5F)C4=C3Cl)C(O)=O`, the “area under concentration-response curve” value with NCI-H295R amounted to 381; with CU-ACC1, 390; in the assay with CU-ACC2 it was 426.

`C=C(c1ccc(C(=O)O)cc1)c1cc2c(cc1C)C(C)(C)CCC2(C)C`: the figures for the “area under concentration-response curve” value in the assay on NCI-H295R, in the assay with CU-ACC1 and in the assay with CU-ACC2 were 511, 509 and 500, respectively.

Regarding `CN1C2CCC1CC(OC(=O)C(CO)c1ccccc1)C2` (centres undefined), the results for the “area under concentration-response curve” value in the assay on NCI-H295R, with CU-ACC1 and with CU-ACC2 were 396, 408 and 396, respectively.

`C/C=C/C[C@@H](C)C(=O)[C@H]1C(=O)N[C@@H](C(C)C)C(=O)N(C)CC(=O)N(C)[C@@H](CC(C)C)C(=O)N[C@@H](C(C)C)C(=O)N(C)[C@@H](CC(C)C)C(=O)N[C@@H](C)C(=O)N[C@H](C)C(=O)N(C)[C@@H](CC(C)C)C(=O)N(C)[C@@H](CC(C)C)C(=O)N(C)[C@@H](C(C)C)C(=O)N1C`: the results for the “area under concentration-response curve” value in the assay with NCI-H295R, with CU-ACC1 and in the assay on CU-ACC2 were 524, 534 and 633, respectively.

With `O=C(CN1C(=O)C2(CCCC2)NC[C@H]1c1cc(F)cc(F)c1)Nc1ccc2c(c1)C[C@@]1(C2)C(=O)Nc2ncccc21`, the “area under concentration-response curve” value in the assay on NCI-H295R was determined as 515; in the assay on CU-ACC1 it was 463; in the assay with CU-ACC2, 565.

As to `OC[C@H]1O[C@H]([C@H](O)[C@@H]1O)N2\C=C/C(=O)NC2=O`, the “area under concentration-response curve” value with NCI-H295R stood at 502; in the assay with CU-ACC1, 485; in the assay on CU-ACC2, 535.

Regarding `NC[C@H]1O[C@H](O[C@H]2[C@H](O)[C@@H](O[C@H]3O[C@H](CO)[C@@H](O)[C@H](N)[C@H]3O)[C@H](N)C[C@@H]2N)[C@H](N)C[C@@H]1O`, the “area under concentration-response curve” value worked out at 535 in the assay with NCI-H295R, 486 in the assay with CU-ACC1 and 579 in the assay with CU-ACC2.

As for `COC(=O)N[C@@H](C)CNc1nccc(-c2cn(C(C)C)nc2-c2cc(Cl)cc(N[S+](C)(=O)[O-])c2F)n1`, the “area under concentration-response curve” value in the assay on NCI-H295R came out at 539; in the assay on CU-ACC1, 497; in the assay on CU-ACC2, 566.

For the molecule `COc1nccc(-c2c(-c3ccc(F)cc3)ncn2C2CCC(O)CC2)n1` (centres undefined), the entries for the “area under concentration-response curve” value in the assay with NCI-H295R, with CU-ACC1 and in the assay on CU-ACC2 were 550, 523 and 590, respectively.

In the case of `COc1cc(C[C@@H](CO)[C@H](CO)Cc2ccc(O)c(OC)c2)ccc1O`, the “area under concentration-response curve” value in the assay with NCI-H295R was determined as 517; in the assay on CU-ACC1 it was 534; with CU-ACC2 it was 575.

Turning to `OC1=C(C=CC=C1)C2=CC=C(C=C2)C3=CSC4=C3C(=C(/C#N)C(=O)N4)/O`, the results for the “area under concentration-response curve” value with NCI-H295R, in the assay on CU-ACC1 and with CU-ACC2 were 570, 535 and 626, respectively.

Turning to `O=C1O[C@]2(CC[C@@H](C(=O)Nc3ccn(-c4ccccc4F)n3)CC2)c2cnccc21`, the “area under concentration-response curve” value with NCI-H295R came to 494; with CU-ACC1, 492; in the assay on CU-ACC2, 602.

In the case of `COC(=O)[C@H](Cc1ccccc1)NC(=O)[C@@H](N)CC(=O)O`, the “area under concentration-response curve” value with NCI-H295R was 558; in the assay with CU-ACC1, 518; in the assay with CU-ACC2, 618.

Turning to `NC\1=N\C(=O)N(\C=C1)[C@@H]2CS[C@H](CO)O2`, the “area under concentration-response curve” value in the assay on NCI-H295R stood at 569; in the assay with CU-ACC1, 534; with CU-ACC2, 612.

With `CC1COC2(CCN(CC2)C/3=N/C(=O)C4=CC(=CC(=C4S3)[N+]([O-])=O)C(F)(F)F)O1` (centres undefined), the entries for the “area under concentration-response curve” value in the assay on NCI-H295R, in the assay with CU-ACC1 and in the assay on CU-ACC2 were 462, 416 and 472, respectively.

For the molecule `CC1(C)CC(O)CC(C)(C)N1[O]`, the “area under concentration-response curve” value with NCI-H295R turned out to be 511; in the assay with CU-ACC1 it was 517; in the assay on CU-ACC2 it was 626.

`Cc1cc(/C=c2/sc3nc4ccccc4n3c2=O)c(C)n1-c1ccccc1`: the “area under concentration-response curve” value in the assay with NCI-H295R is 549; with CU-ACC1 it was 569; with CU-ACC2, 625.

For `C[C@H](c1ccc(F)cc1CCCC(=O)O)N(c1cc(F)ccc1F)[S+](=O)([O-])c1ccc(Cl)cc1`, the “area under concentration-response curve” value was determined as 553 in the assay with NCI-H295R, 519 with CU-ACC1 and 596 in the assay on CU-ACC2.
